Assay results as given in PubChem BioAssay AID296 (DTP/NCI, 2004).
Where “and” joins values, the source holds several entries; their conditions need not be identical. Identical values can stand only once. Records with an inconclusive call do not appear.

Tested on: MX-1 breast xenograft, nude mice, tumor weight T/C
Assay: NCI In Vivo Anticancer Drug Screen. Data for tumor model Human Mammary Carcinoma MX-1 Xenograft (intrarenal inoculation) in NU/NU Swiss (nude) mice
Conditions: endpoint: mean tumor weight change, higher = larger tumour
Summary of the method: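 Activity is given as a ratio, with each measurement in the compound-treated arm divided by the matching measurement in vehicle-dosed controls. Tumour size or survival serves as the measured parameter.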

[1] = dose: 300.0 mg/kg/injection, schedule: Q04DX003 (sc), vehicle: saline
[2] = dose: 400.0 mg/kg/injection, schedule: Q04DX003 (sc), vehicle: saline
[3] = dose: 600.0 mg/kg/injection, schedule: Q04DX003 (sc), vehicle: saline
[4] = dose: 800.0 mg/kg/injection, schedule: Q04DX003 (sc), vehicle: saline
[5] = dose: 600.0 mg/kg/injection, schedule: Q04DX003 (sc), vehicle: saline with Tween-80
[6] = dose: 1200.0 mg/kg/injection, schedule: Q04DX003 (sc), vehicle: saline with Tween-80
[7] = dose: 24.0 mg/kg/injection, schedule: Q04DX003 (sc), vehicle: Klucel (hydroxypropylcellulose) (HPC)
[8] = dose: 1200.0 mg/kg/injection, schedule: Q04DX003 (sc), vehicle: saline

## O=c1n[n+]([O-])ccn1C1OC(CO)C(O)C1O (configuration not stated)
dose: 100.0 mg/kg/injection, schedule: Q01DX010 (sc), vehicle: suspension in saline
  T/C: 56 % of control
dose: 200.0 mg/kg/injection, schedule: Q01DX010 (sc), vehicle: suspension in saline
  T/C: 91 % of control
dose: 400.0 mg/kg/injection, schedule: Q01DX010 (sc), vehicle: suspension in saline
  T/C: 86 % of control

## CCOC(=O)C(N)CSC(=O)NC (configuration not stated)
dose: 112.0 mg/kg/injection, schedule: Q04DX003 (sc), vehicle: saline
  T/C: 12 % of control
[1]
  T/C: 33 % of control
[2]
  T/C: 15 % of control
[3]
  T/C: 8 % of control
[4]
  T/C: 3 % of control

## CCN(CC)CCNc1ccc(C)c2sc3ccc(O)cc3c(=O)c12
[5]
  T/C: 67 % of control
[6]
  T/C: 57 % of control

## c1ccc2c(c1)nnn1c3cnccc3nc21
dose: 12.5 mg/kg/injection, schedule: Q01DX010 (sc), vehicle: saline with Tween-80
  T/C: 36 % of control
dose: 25.0 mg/kg/injection, schedule: Q01DX010 (sc), vehicle: saline with Tween-80
  T/C: 86 % of control
dose: 50.0 mg/kg/injection, schedule: Q01DX010 (sc), vehicle: saline with Tween-80
  T/C: 63 % of control

## CN(C)CCN1C(=O)c2cccc3cc(N)cc(c23)C1=O
dose: 16.0 mg/kg/injection, schedule: Q04DX003 (sc), vehicle: saline with Tween-80
  T/C: 80 % of control
dose: 32.0 mg/kg/injection, schedule: Q04DX003 (sc), vehicle: saline with Tween-80
  T/C: 78 % of control

## CN(C)N=Nc1cn[nH]c1C(N)=O
dose: 100.0 mg/kg/injection, schedule: Q04DX003 (sc), vehicle: suspension in saline
  T/C: 98 % of control
dose: 200.0 mg/kg/injection, schedule: Q04DX003 (sc), vehicle: saline
  T/C: 63 % of control
dose: 200.0 mg/kg/injection, schedule: Q04DX003 (sc), vehicle: suspension in saline
  T/C: 67 % of control
[2]
  T/C: 49 % of control
dose: 400.0 mg/kg/injection, schedule: Q04DX003 (sc), vehicle: suspension in saline
  T/C: 31 % of control and 37 % of control
[4]
  T/C: 13 % of control
dose: 800.0 mg/kg/injection, schedule: Q04DX003 (sc), vehicle: suspension in saline
  T/C: 2 % of control and 7 % of control

## CC1=CC(C)(C)Nc2ccc(CSc3ccccc3)cc21
dose: 25.0 mg/kg/injection, schedule: Q01DX010 (sc), vehicle: saline + Tween-80 + alcohol
  T/C: 85 % of control
dose: 50.0 mg/kg/injection, schedule: Q01DX010 (sc), vehicle: saline + Tween-80 + alcohol
  T/C: 153 % of control
dose: 100.0 mg/kg/injection, schedule: Q01DX010 (sc), vehicle: saline + Tween-80 + alcohol
  T/C: 79 % of control and 102 % of control
dose: 200.0 mg/kg/injection, schedule: Q01DX010 (sc), vehicle: saline + Tween-80 + alcohol
  T/C: 89 % of control

## CCC[CH2][Sn]1([CH2]CCC)[O]C2C(CO)OC(n3ccc(N)nc3=O)C2[O]1 (configuration not stated)
dose: 12.0 mg/kg/injection, schedule: Q04DX003 (sc), vehicle: Klucel (hydroxypropylcellulose) (HPC)
  T/C: 55 % of control
[7]
  T/C: 59 % of control

## Cc1nc(C(Cl)(Cl)Cl)[nH]c(=O)c1SCCO
dose: 150.0 mg/kg/injection, schedule: Q04DX003 (ip), vehicle: distilled water + alcohol
  T/C: 162 % of control
dose: 300.0 mg/kg/injection, schedule: Q04DX003 (ip), vehicle: distilled water + alcohol
  T/C: 195 % of control
dose: 600.0 mg/kg/injection, schedule: Q04DX003 (ip), vehicle: distilled water + alcohol
  T/C: 50 % of control

## CCCCCCCCCCCCCCCCCC(=O)Nc1ccn(C2OC(CO)C(O)C2O)c(=O)n1 (configuration not stated)
[5]
  T/C: 11 % of control and 15 % of control and 24 % of control
[6]
  T/C: 3 % of control and 8 % of control

## Cc1cn(C2CC3[O][Sn]([c]4ccccc4)([c]4ccccc4)[O]CC3O2)c(=O)[nH]c1=O (configuration not stated)
dose: 25.0 mg/kg/injection, schedule: Q01DX010 (sc), vehicle: saline
  T/C: 93 % of control
dose: 100.0 mg/kg/injection, schedule: Q01DX010 (sc), vehicle: saline
  T/C: 93 % of control
dose: 200.0 mg/kg/injection, schedule: Q01DX010 (sc), vehicle: saline
  T/C: 115 % of control
[3]
  T/C: 86 % of control
[8]
  T/C: 107 % of control
dose: 2400.0 mg/kg/injection, schedule: Q04DX003 (sc), vehicle: saline
  T/C: 64 % of control

## COc1cc(NCc2ccc3nc(N)nc(N)c3c2C)cc(OC)c1OC
dose: 1.25 mg/kg/injection, schedule: Q01DX010 (sc), vehicle: sodium bicarbonate
  T/C: 70 % of control
dose: 2.5 mg/kg/injection, schedule: Q01DX010 (sc), vehicle: sodium bicarbonate
  T/C: 46 % of control
dose: 20.0 mg/kg/injection, schedule: Q01DX010 (sc), vehicle: sodium bicarbonate
  T/C: 97 % of control
dose: 75.0 mg/kg/injection, schedule: Q04DX003 (sc), vehicle: water
  T/C: 115 % of control
dose: 150.0 mg/kg/injection, schedule: Q04DX003 (sc), vehicle: water
  T/C: 108 % of control
dose: 300.0 mg/kg/injection, schedule: Q04DX003 (sc), vehicle: water
  T/C: 112 % of control

## O=C1N[C@@H]([C@H]2CC[C@H](Cl)CN2)C(=O)N[C@H]1[C@H]1CC[C@H](Cl)CN1
dose: 0.62 mg/kg/injection, schedule: Q01DX010 (sc), vehicle: water
  T/C: 110 % of control
dose: 2.5 mg/kg/injection, schedule: Q01DX010 (sc), vehicle: water
  T/C: 72 % of control and 73 % of control
dose: 2.5 mg/kg/injection, schedule: Q04DX003 (sc), vehicle: water
  T/C: 11 % of control
dose: 5.0 mg/kg/injection, schedule: Q01DX010 (sc), vehicle: water
  T/C: 30 % of control and 46 % of control
dose: 5.0 mg/kg/injection, schedule: Q04DX003 (sc), vehicle: water
  T/C: -62 % of control
dose: 10.0 mg/kg/injection, schedule: Q04DX003 (sc), vehicle: water
  T/C: -100 % of control
dose: 20.0 mg/kg/injection, schedule: Q04DX003 (sc), vehicle: water
  T/C: -100 % of control

## Nc1cccc(=O)[nH]1
[1]
  T/C: 92 % of control
[3]
  T/C: 95 % of control
[8]
  T/C: 102 % of control

## CC[C@]1(O)C[C@H]2CN(CCc3c([nH]c4ccccc34)[C@@](C(=O)OC)(c3cc4c(cc3OC)N(C=O)[C@H]3[C@@](O)(C(=O)OC)[C@H](OC(C)=O)[C@]5(CC)C=CCN6CC[C@]43[C@@H]65)C2)C1
dose: 0.5 mg/kg/injection, schedule: Q01DX010 (sc), vehicle: saline
  T/C: -100 % of control and -81 % of control
dose: 1.0 mg/kg/injection, schedule: Q01DX010 (sc), vehicle: saline
  T/C: -99 % of control

## CC(=O)OCC1OC(OC(C)=O)C(NC(=O)N(CCCl)N=O)C(OC(C)=O)C1OC(C)=O (configuration not stated)
dose: 6.0 mg/kg/injection, schedule: Q04DX003 (sc), vehicle: Klucel (hydroxypropylcellulose) (HPC)
  T/C: 95 % of control
[7]
  T/C: 77 % of control

## C=C(C)[C@]12CC(C)C34OC(/C=C\C=C\CCCCCCCCC)(O[C@@H]1[C@@H]3[C@@H]1O[C@]1(CO)[C@@H](O)[C@]1(O)C(=O)C(C)=C[C@@H]41)O2 (some centres not stated)
dose: 6.0 mg/kg/injection, schedule: Q04DX003 (sc), vehicle: distilled water + alcohol
  T/C: 102 % of control
dose: 12.0 mg/kg/injection, schedule: Q04DX003 (sc), vehicle: distilled water + alcohol
  T/C: 95 % of control

## CCCCCC[Se][Se]CCCCCC
dose: 75.0 mg/kg/injection, schedule: Q04DX003 (sc), vehicle: Klucel (hydroxypropylcellulose) (HPC)
  T/C: 98 % of control
dose: 150.0 mg/kg/injection, schedule: Q04DX003 (sc), vehicle: Klucel (hydroxypropylcellulose) (HPC)
  T/C: 80 % of control
dose: 300.0 mg/kg/injection, schedule: Q04DX003 (sc), vehicle: Klucel (hydroxypropylcellulose) (HPC)
  T/C: 102 % of control and 114 % of control

## C[CH2][Pb]([CH2]C)([CH2]C)[O]C(=O)COc1ccccc1
dose: 4.5 mg/kg/injection, schedule: Q04DX003 (sc), vehicle: saline with Tween-80
  T/C: 66 % of control
dose: 9.0 mg/kg/injection, schedule: Q04DX003 (sc), vehicle: saline with Tween-80
  T/C: 112 % of control
dose: 18.0 mg/kg/injection, schedule: Q04DX003 (sc), vehicle: saline with Tween-80
  T/C: 79 % of control
